This note sets out measurements from patent US6417199B1, “3-benzyl-benzothiophenes” (Eli Lilly and Company, priority 1995, dated 2002).

pEC50: −log10 of the molar value.

One assay deals with Serum Cholesterol. The experiment in a line: Serum cholesterol in ovariectomized rat post-menopausal model. The assay is classed as in vivo, Sprague Dawley rats. The note with it: ovariectomized rats, dosed orally daily for 4 days; for ED50: Rattus norvegicus, po, 96 h. How it is done:
In the examples illustrating the methods, a post-menopausal model was used in which effects of different treatments upon circulating lipids were determined.
Seventy-five day old female Sprague Dawley rats (weight range of 200 to 225 g) are obtained from Charles River Laboratories (Portage, Mich.). The animals are either bilaterally ovariectomized (OVX) or exposed to a Sham surgical procedure at Charles River Laboratories, and then shipped after one week. Upon arrival, they are housed in metal hanging cages in groups of 3 or 4 per cage and had ad libitum access to food (calcium content approximately 0.5%) and water for one week. Room temperature is maintained at 22.2°±1.7° C. with a minimum relative humidity of 40%. The photoperiod in the room was 12 hours light and 12 hours dark.
Dosing Reaimen Tissue Collection. After a one week acclimation period (therefore, two weeks post-OVX) daily dosing with test compound is initiated. 17α-ethynyl estradiol or the test compound is given orally, unless otherwise stated, as a suspension in 1% carboxymethylcellulose or dissolved in 20% cyclodextrin. Animals are dosed daily for 4 days. Following the dosing regimen, animals are weighed and anesthetized with a ketamine: xylazine (2:1, V:V) mixture and a blood sample is collected by cardiac puncture. The animals are then sacrificed by asphyxiation with CO2, the uterus is removed through a midline incision, and a wet uterine weight is determined.
Cholesterol Analysis. Blood samples are allowed to clot at room temperature for 2 hours, and serum is obtained following centrifugation for 10 minutes at 3000 rpm. Serum cholesterol is determined using a Boehringer Mannheim Diagnostics high performance cholesterol assay. Briefly the cholesterol is oxidized to cholest-4-en-3-one and hydrogen peroxide. The hydrogen peroxide is then reacted with phenol and 4-aminophenazone in the presence of peroxidase to produce a p-quinone imine dye, which is read spectrophotemetrically at 500 nm. Cholesterol concentration is then calculated against a standard curve. The entire assay is automated using a Biomek Automated Workstation.
Data presented in Table 1 below show results when rats were treated with certain compounds of the present invention. The compounds of the present invention generally reduce serum cholesterol compared to the ovariectomized control animals.

Assay [1] concerns MCF-7 breast adenocarcinoma cells. The experiment in a line: MCF-7 Proliferation Assay. It is filed as cell-based. The conditions noted are these: Homo sapiens, MCF7; MCF-7 cells, 48 hours with drug, tritiated thymidine incorporation; read-out: ED50 (the source's name). How it is done:
MCF-7 breast adenocarcinoma cells (ATCC HTB 22) were maintained in MEM (minimal essential medium, phenol red-free, Sigma, St. Louis, Mo.) supplimented with 10% fetal bovine serum (FBS) (V/V), L-glutamine (2 mM), sodium pyruvate (1 mM), HEPES {(N-[2-hydroxyethyl]piperazine-N′-[2-ethanesulfonic acid]10 mM}, non-essential amino acids and bovine insulin (1 ug/mL) (maintenance medium). Ten days prior to assay, MCF-7 cells were switched to maintenance medium supplemented with 10% dextran coated charcoal stripped fetal bovine serum (DCC-FBS) assay medium) in place of 10% FBS to deplete internal stores of steroids. MCF-7 cells were removed from maintenance flasks using cell dissociation medium (Ca++/Mg++ free HBSS (phenol red-free) supplemented with 10 mM HEPES and 2 mM EDTA). Cells were say medium and adjusted to 80,000 cells/mL. Approximately 100 μL (8,000 cells) were added to flat-bottom microculture wells (Costar 3596) and incubated at 37° C. in a 5% CO2 humidified incubator for 48 hours to allow for cell adherence and equilbration after transfer. Serial dilutions of drugs or DSMO as a diluent control were prepared in assay medium and 50 μL transferred to triplicate microcultures followed by 50 μL assay medium for a final volume of 200 μL. After an additional 48 hours at 37° C. in a 5% CO2 humidified incubator, microcultures were pulsed with tritiated thymidine (1 uCi/well) for 4 hours. Cultures were terminated by freezing at −70° C. for 24 hours followed by thawing and harvesting of microcultures using a Skatron Semiautomatic Cell Harvester. Samples were counted by liquid scintillation using a Wallac BetaPlace β counter. Results in Table 2 below show the ED50 for certain compounds of the present invention.
(Incorporation of labelled thymidine or its analogues reports DNA synthesis.)

As a reminder, the ED50 is the midpoint of the dose-response relation. Read a high ED50 as a need for a large dose. On to `CSC(c1ccc(OCCN2CCCCC2)cc1)c1c(-c2ccc(O)cc2)sc2cc(O)ccc12` (centres unmarked) [Example 9], for which the median effective dose (ED50) in the assay on Serum Cholesterol is 5.1 mg/kg. For the same compound, the pEC50 in assay [1] was 8.52.
`OCCNC(c1ccc(OCCN2CCCCC2)cc1)c1c(-c2ccc(O)cc2)sc2cc(O)ccc12` (centres unmarked) [Example 18]: in the assay with Serum Cholesterol, the “Serum Cholesterol ED50 (mg/kg)” value is recorded as “N.A. at 10.0;”. Besides, the pEC50 in assay [1] was 7.05.
Consider `CNC(c1ccc(OCCN2CCCCC2)cc1)c1c(-c2ccc(O)cc2)sc2cc(O)ccc12` (centres unmarked) [Example 12], for which the ED50 in the assay on Serum Cholesterol came to 0.8 mg/kg. The pEC50 in assay [1] is 8.40.
The corresponding values for `Oc1ccc(-c2sc3cc(O)ccc3c2C(c2ccc(OCCN3CCCCC3)cc2)N2CCCCCC2)cc1` (centres unmarked) [Example 17] are 10 mg/kg and 7.52.
The corresponding values for `N#CCCOC(c1ccc(OCCN2CCCCC2)cc1)c1c(-c2ccc(O)cc2)sc2cc(O)ccc12` (centres unmarked) [Example 7] are 2.4 mg/kg and 8.15.
For `CN(C)C(c1ccc(OCCN2CCCCC2)cc1)c1c(-c2ccc(O)cc2)sc2cc(O)ccc12` (centres unmarked) [Example 11], the ED50 with Serum Cholesterol stood at 0.1 mg/kg. Further, in assay [1], the pEC50 is 7.70.
The compound `Oc1ccc(C2Sc3cc(O)ccc3C2C(OCc2ccccc2)c2ccc(OCCN3CCCCC3)cc2)cc1` (centres unmarked) [Example 6] displayed an ED50 with Serum Cholesterol of 10 mg/kg. In addition, the pEC50 in assay [1] is 9.30.
In turn, `CCN(CC)C(c1ccc(OCCN2CCCCC2)cc1)c1c(-c2ccc(O)cc2)sc2cc(O)ccc12` (centres unmarked) [Example 15] displayed an ED50 in the assay on Serum Cholesterol of 3.8 mg/kg. Moreover, the pEC50 in assay [1] is 8.15.
As to `CCCOC(c1ccc(OCCN2CCCCC2)cc1)c1c(-c2ccc(O)cc2)sc2cc(O)ccc12` (centres unmarked) [Example 3], it took a dose of 10 mg/kg to reach the 50% effect level with Serum Cholesterol (ED50). Moreover, the pEC50 in assay [1] is 8.70.
For `CCSC(c1ccc(OCCN2CCCCC2)cc1)c1c(-c2ccc(O)cc2)sc2cc(O)ccc12` (centres unmarked) [Example 10], in the assay with Serum Cholesterol, it took a dose of 1.7 mg/kg to reach the 50% effect level (ED50). Moreover, the pEC50 in assay [1] was 8.92.
The corresponding values for `OCCOC(c1ccc(OCCN2CCCCC2)cc1)c1c(-c2ccc(O)cc2)sc2cc(O)ccc12` (centres unmarked) [Example 8] are 2.9 mg/kg and 7.70.
The corresponding values for `Oc1ccc(-c2sc3cc(O)ccc3c2C(c2ccc(OCCN3CCCCC3)cc2)N2CCCC2)cc1` (centres unmarked) [Example 16] are 10 mg/kg and 7.82.
The corresponding values for `Oc1ccc(-c2sc3cc(O)ccc3c2C(NN2CCCCC2)c2ccc(OCCN3CCCCC3)cc2)cc1` (centres unmarked) [Example 20] are 10 mg/kg and 8.15.
For `CCCCOC(c1ccc(OCCN2CCCCC2)cc1)c1c(-c2ccc(O)cc2)sc2cc(O)ccc12` (centres unmarked) [Example 5], in the assay on Serum Cholesterol, the ED50 stood at 2.5 mg/kg. The pEC50 in assay [1] was 8.82.
In the case of `COC(c1ccc(OCCN2CCCCC2)cc1)c1c(-c2ccc(O)cc2)sc2cc(O)ccc12` (centres unmarked) [Example 1], in the assay with Serum Cholesterol, the ED50 worked out at 3.5 mg/kg. Moreover, the pEC50 in assay [1] was 9.10.
Take `NC(c1ccc(OCCN2CCCCC2)cc1)c1c(-c2ccc(O)cc2)sc2cc(O)ccc12` (centres unmarked) [Example 14]: the 50% effect level in the assay with Serum Cholesterol (ED50) was put at a dose of 5.7 mg/kg. For the same compound, the pEC50 in assay [1] was 8.22.
With `CCOC(c1ccc(OCCN2CCCCC2)cc1)c1c(-c2ccc(O)cc2)sc2cc(O)ccc12` (centres unmarked) [Example 2], in the assay on Serum Cholesterol, the ED50 was 10 mg/kg. Moreover, in assay [1], the pEC50 is 8.52.
The corresponding values for `CC(C)OC(c1ccc(OCCN2CCCCC2)cc1)c1c(-c2ccc(O)cc2)sc2cc(O)ccc12` (centres unmarked) [Example 4] are 4.1 mg/kg and 8.00.
The corresponding values for `N#CC(c1ccc(OCCN2CCCCC2)cc1)c1c(-c2ccc(O)cc2)sc2cc(O)ccc12` (centres unmarked) [Example 13] are 0.8 mg/kg and 9.10.
